Type: biochemical
Conditions: pH 7.4

Q: Which “single-channel conductance of the αHL channel” value does the source give for α-hemolysin [αHL] here?
A: ~900 pS
